These are literature values, as cited in patent US8048407B2, “In situ gelling self-reactive materials for embolization” (priority 2003, dated 2011).

For this series the following is noted: literature studies.

SMILES strings stand for the structures.

Turning to `C=CC(=O)NCNC(=O)C=C` [NMBA, N,N-methylenebisacrylamide], the cross-link efficiency is reported as 0.0066.
